Each structure is given as a SMILES string. ≈ marks a conversion by molar mass, not a printed value. Calls of active or inactive are those of the source. No cut-off for these calls is given here.

Here are results for five compounds from ChEMBL document CHEMBL1140044, “Structure-activity relationship study on anti-HIV 6-desfluoroquinolones” (J Med Chem, 2008).

In data set [1] the test system is Human immunodeficiency virus 1. Kind of data set: Antiviral activity against HIV1 3B in MT4 cells assessed as virus p24 antigen production administered at 10 hrs post infection by ELISA. It is filed as functional, organism-based. For orientation: An ELISA detects its analyte on a solid surface through an enzyme-linked reagent.
Data set [2] has as its system Human immunodeficiency virus 1. Kind of data set: Antiviral activity against HIV1 3B in CEM cells assessed as inhibition of virus-induced syncytium formation after 4 days by microscopy. Conditions: Human immunodeficiency virus 1, 3B, CCRF-CEM, 96 h. It is filed as functional, organism-based.
A short description of data set [3]: Cytotoxicity against mock-infected human MT4 cells after 5 days by MTT assay. It is filed as cell-based.
The nature of data set [4]: Selectivity index, ratio of CC50 for human CEM cells to EC50 for HIV2 ROD. It is filed as toxicity, cell-based, CCRF-CEM. To be noted: read-out: Ratio CC50/EC50.
Data set [5] deals with Human immunodeficiency virus 1. Kind of data set: Inhibition of HIV1 3B production in chronically infected HUT78 cells assessed as virus p24 antigen production after 44 hrs by ELISA. It is filed as functional, organism-based.
In data set [6] the test system is Human immunodeficiency virus 1. The data set is described as follows: Antiviral activity against HIV1 3B in MT4 cells assessed as inhibition of virus-induced cytopathogenicity by MTT assay. It is filed as functional, organism-based. Conditions: Human immunodeficiency virus 1, 3B. (In general: Cytopathic effects are the visible damage that an infection or toxin causes in cultured cells.)

Data set [7] has as its target T1, Protein Tat (Human immunodeficiency virus type 1 group M subtype B (isolate HXB2)(HIV-1)) (UniProt P04608).
T1 sequence (whole entry): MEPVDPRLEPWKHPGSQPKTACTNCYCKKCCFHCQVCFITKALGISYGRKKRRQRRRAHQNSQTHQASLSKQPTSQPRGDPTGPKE
Kind of data set: Inhibition of HIV1 Tat-mediated LTR promoter transactivation in Tat/GFP plasmid expressed in Jurkat cells assessed as GFP gene expression by FACS analysis. It is filed as cell-based. Conditions: Human immunodeficiency virus 1.

Data set [8] in a line: Cytotoxicity against mock-infected human CEM cells by Coulter counter. Format: cell-based. To be noted: mock-infected CEM (CCRF-CEM) cells.
In data set [9] the test system is Human immunodeficiency virus 2. Kind of data set: Antiviral activity against HIV2 ROD in CEM cells assessed as inhibition of virus-induced syncytium formation after 4 days by microscopy. It is filed as functional, organism-based. Conditions: Human immunodeficiency virus 2, ROD, CCRF-CEM, 96 h.
Data set [10] is described as follows: Cytotoxicity against mock-infected human PBMC cells by trypan blue exclusion assay. Format: cell-based.
In data set [11] the test system is Human immunodeficiency virus 1. Kind of data set: Antiviral activity against HIV1 3B in PBMC assessed as inhibition of p24 production after 7 days by ELISA. To be noted: Human immunodeficiency virus 1, 3B, 168 h. Format: functional, organism-based.
Data set [12] can be described thus: Selectivity index, ratio of CC50 for human PBMC cells to EC50 for HIV1 3B. Format: toxicity, cell-based. Conditions: read-out: Ratio CC50/EC50.
Data set [13] has as its system Human immunodeficiency virus 2. The data set is described as follows: Antiviral activity against HIV2 ROD in MT4 cells assessed as inhibition of virus-induced cytopathogenicity by MTT assay. To be noted: Human immunodeficiency virus 2, ROD. It is filed as functional, organism-based.
The nature of data set [14]: Selectivity index, ratio of CC50 for human MT4 cells to EC50 for HIV1 3B. Conditions: read-out: Ratio CC50/EC50. It is filed as toxicity, cell-based.
Data set [15] can be described thus: Selectivity index, ratio of CC50 for human MT4 cells to EC50 for HIV2 ROD. It is filed as toxicity, cell-based. To be noted: read-out: Ratio CC50/EC50.
The nature of data set [16]: Selectivity index, ratio of CC50 for human CEM cells to EC50 for HIV1 3B. It is filed as toxicity, cell-based, CCRF-CEM. To be noted: read-out: Ratio CC50/EC50.
In data set [17] the test system is Human immunodeficiency virus 1. Kind of data set: Antiviral activity against HIV1 3B in MT4 cells assessed as virus p24 antigen production administered at 5 hrs post infection by ELISA. Format: functional, organism-based.
Data set [18] concerns Human immunodeficiency virus 1. The data set is described as follows: Antiviral activity against HIV1 3B in MT4 cells assessed as virus p24 antigen production administered at 16 hrs post infection by ELISA. It is filed as functional, organism-based.

Consider `Cn1cc(C(=O)O)c(=O)c2ccc(N3CCN(c4nc5ccccc5s4)CC3)cc21`, for which the outcome in [1] and in data set [5] was Active. Further, the EC50 in [2] came to 0.024 µg/mL (≈ 0.0571 µM); in data set [6], 0.03 µg/mL (≈ 0.0713 µM); in data set [9] it was 0.065 µg/mL (≈ 0.155 µM); in [11], 0.15 µg/mL (≈ 0.357 µM); in [13] it was 0.04 µg/mL (≈ 0.0951 µM). The compound also gave a CC50 at 120 h in [3] of 0.44 µg/mL (≈ 1.05 µM). In addition, the selectivity ratio was 104 in data set [4]; 4 in data set [12]; 14.7 in data set [14]; 5.5 in data set [15]; 281 in data set [16]. Also, the Activity entry in data set [7] was “Dose-dependent effect”. In addition, the CC50 in data set [8] was found to be 6.74 µg/mL (≈ 16 µM); in data set [10], 0.65 µg/mL (≈ 1.55 µM).
Consider `Cn1cc(C(=O)O)c(=O)c2ccc(N3CCN(c4cccc(C(F)(F)F)c4)CC3)cc21`, for which the EC50 stood at 0.13 µg/mL (≈ 0.301 µM) in data set [2]; 0.07 µg/mL (≈ 0.162 µM) in data set [6]; 0.28 µg/mL (≈ 0.649 µM) in data set [9]; 0.28 µg/mL (≈ 0.649 µM) in data set [11]; 0.13 µg/mL (≈ 0.301 µM) in [13]. In data set [3], this compound displayed a half-maximal cytotoxic concentration (CC50) at 120 h of 2.61 µg/mL (≈ 6.05 µM). Further, the selectivity ratio was 4 in [4]; 2 in data set [12]; 38 in data set [14]; 21 in [15]; 9 in [16]. Moreover, the outcome in data set [5] was Active. The CC50 in data set [8] was found to be 1.2 µg/mL (≈ 2.78 µM); in [10], 0.69 µg/mL (≈ 1.6 µM).
Consider `CC(C)c1nc(CN(C)C(=O)N[C@H](C(=O)N[C@@H](Cc2ccccc2)C[C@H](O)[C@H](Cc2ccccc2)NC(=O)OCc2cncs2)C(C)C)cs1`, for which the result in data set [17] and in data set [18] was Active.
In the case of `Cn1cc(C(=O)O)c(=O)c2ccc(N3CCN(c4nc5ccccc5o4)CC3)cc21`, the EC50 in data set [2] was 3.35 µg/mL (≈ 8.28 µM); in [6], 5.76 µg/mL (≈ 14.2 µM); in [9] it was 14 µg/mL (≈ 34.6 µM); in data set [13] it was 11.9 µg/mL (≈ 29.3 µM). In data set [3], this compound gave a CC50 at 120 h greater than 125 µg/mL. The selectivity ratio in [4] is greater than 7; in data set [14] it was greater than 22; in data set [15], greater than 11; in data set [16] it was greater than 30. Also, in data set [7], the Activity entry was “Dose-dependent effect”. The same compound came in with a CC50 in data set [8] greater than 100 µg/mL.
Regarding `Cc1cn([C@H]2C[C@H](N=[N+]=[N-])[C@@H](CO)O2)c(=O)[nH]c1=O`, the outcome in data set [17] and in [18] was Active.

As a reminder, the EC50 is the midpoint of the concentration-response curve. A word on the CC50: it is the concentration at which the toxic effect on the cells reaches its halfway point. High values mean better tolerance by the cells, low ones harm at low concentration.
